Measured values as given in paper PMC8617031, “Development of a BCL-xL and BCL-2 dual degrader with improved anti-leukemic activity,” (Nature Communications, 2021).
Values joined by “and” are separate entries in the source; they are usually repeats but may differ in a detail not shown here. Equal values may be shown once.

Experiments:
[1] = target: T1, BCL-xL/PROTAC/VHL-ELOC-ELOB (VCB) ternary complex (Homo sapiens, UniProt P40337+Q07817); experiment: AlphaLISA ternary complex formation, cell-free, BCL-xL; type: binding; conditions: for in vitro ternary complex formation with BCL-xL (in words): AlphaLISA, cell-free, Fig. 2c, 3e; for AlphaLISA signal, BCL-xL/PROTAC/VCB: Fig. 2c raw Alpha reads
T1 construct: pGEX-6P-1-VHL(54-213) (pDL2200) was constructed through Gibson assembly method; made in house; host or cells: bacterial culture (LB broth, IPTG induction)
T1 sequence (Q07817 1-212 limits assumed): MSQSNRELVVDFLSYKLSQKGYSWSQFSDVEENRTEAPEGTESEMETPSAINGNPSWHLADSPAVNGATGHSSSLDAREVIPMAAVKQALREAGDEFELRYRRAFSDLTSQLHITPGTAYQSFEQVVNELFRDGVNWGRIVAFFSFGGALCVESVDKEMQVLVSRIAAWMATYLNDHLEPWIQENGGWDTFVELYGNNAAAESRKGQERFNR
T1 sequence (P40337 54-213 limits assumed): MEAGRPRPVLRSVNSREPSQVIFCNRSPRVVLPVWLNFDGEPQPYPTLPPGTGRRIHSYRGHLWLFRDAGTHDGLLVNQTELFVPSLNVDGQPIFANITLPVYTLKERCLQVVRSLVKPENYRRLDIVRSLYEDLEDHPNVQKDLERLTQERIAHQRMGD
T1 sequence (Q15369 17-112 partner limits assumed): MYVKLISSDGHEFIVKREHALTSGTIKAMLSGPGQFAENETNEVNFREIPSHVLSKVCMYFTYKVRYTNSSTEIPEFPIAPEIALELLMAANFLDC
T1 sequence (Q15370 whole entry partner): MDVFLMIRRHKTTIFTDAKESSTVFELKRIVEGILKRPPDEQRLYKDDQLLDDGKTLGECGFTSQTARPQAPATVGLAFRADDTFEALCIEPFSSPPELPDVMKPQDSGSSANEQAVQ
How it was run: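 Cell-free AlphaLISA: 5 nM His-tagged BCL-xL or BCL-2 plus 5 nM GST-VCB incubated with fourfold serially diluted compound 30 min at room temperature. Glutathione donor and His acceptor beads (20 µg/ml each) then added for 15 and 45 min; AlphaLISA signal plotted against compound concentration.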

[2] = target: T2, BCL-xL (Homo sapiens, UniProt Q07817); experiment: BCL-xL degradation by immunoblot in 293T cells; type: cell-based; conditions: for DC50: 293T cells, four concentrations, 16 h, Fig. 2b, read-out: BCL-xL DC50; for Dmax: HEK-293T
T2 construct: endogenous in cells
T2 sequence (Q07817 whole entry): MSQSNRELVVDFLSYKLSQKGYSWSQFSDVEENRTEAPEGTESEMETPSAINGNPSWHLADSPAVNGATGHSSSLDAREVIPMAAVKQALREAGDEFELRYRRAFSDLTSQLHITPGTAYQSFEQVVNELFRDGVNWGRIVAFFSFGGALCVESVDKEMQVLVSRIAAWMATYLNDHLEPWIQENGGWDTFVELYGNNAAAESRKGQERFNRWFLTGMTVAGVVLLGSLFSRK
How it was run: (§1)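 DC50 and Dmax come from densitometry of western blots of treated 293T cells, normalized to β-actin, mean of 3 independent experiments. Lysates in RIPA, 20–40 μg loaded per lane, HRP chemiluminescence read-out.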

[3] = target: T3, BCL-2 (Homo sapiens, UniProt P10415); experiment: BCL-2 degradation by immunoblot in 293T cells; type: cell-based; conditions: for BCL-2 degradation (in words) / DC50: 293T cells, 16 h; for DC50: four concentrations, Fig. 2b, read-out: BCL-2 DC50; for Dmax: HEK-293T
T3 construct: endogenous in cells
T3 sequence (P10415 whole entry): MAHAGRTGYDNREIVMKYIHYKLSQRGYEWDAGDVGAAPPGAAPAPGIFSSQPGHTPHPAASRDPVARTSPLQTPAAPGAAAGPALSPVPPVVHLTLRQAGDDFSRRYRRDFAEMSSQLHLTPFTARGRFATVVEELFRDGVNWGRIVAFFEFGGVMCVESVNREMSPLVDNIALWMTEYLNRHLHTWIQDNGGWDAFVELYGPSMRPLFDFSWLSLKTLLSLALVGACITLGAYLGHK
How it was run: as §1

[4] = compound 200000 nM, 2 technical replicates

in vitro ternary complex formation with BCL-xL (in words) [1]	AlphaLISA signal, BCL-xL/PROTAC/VCB ([1]; compound 0.191 nM)	AlphaLISA signal, BCL-xL/PROTAC/VCB ([1]; compound 0.763 nM)	AlphaLISA signal, BCL-xL/PROTAC/VCB ([1]; compound 3.052 nM)	AlphaLISA signal, BCL-xL/PROTAC/VCB ([1]; compound 12.207 nM)	AlphaLISA signal, BCL-xL/PROTAC/VCB ([1]; compound 48.828 nM)	AlphaLISA signal, BCL-xL/PROTAC/VCB ([1]; compound 195.31 nM)	AlphaLISA signal, BCL-xL/PROTAC/VCB ([1]; compound 781.25 nM)	AlphaLISA signal, BCL-xL/PROTAC/VCB ([1]; compound 3125 nM)	AlphaLISA signal, BCL-xL/PROTAC/VCB ([1]; compound 12500 nM)	AlphaLISA signal, BCL-xL/PROTAC/VCB ([1]; compound 50000 nM)	AlphaLISA signal, BCL-xL/PROTAC/VCB [1, 4]	DC50 [2] [nM]	Dmax [2] [%]	BCL-2 degradation (in words) [3]	DC50 [3] [nM]	Dmax [3] [%]	SMILES
stronger ternary complexes	19077 and 19160	16314 and 16977	21818 and 20322	112726 and 99392	824374 and 896013	1441307 and 1441293	1280941 and 1272724	836346 and 758740	257313 and 288328	78225 and 86140	21117 and 20625	12.9	94	also degraded BCL-2	54	94	Cc1ncsc1-c1ccc([C@H](C)NC(=O)[C@@H]2C[C@@H](O)CN2C(=O)[C@@H](NC(=O)CCCCCCC(=O)N2CCN(CC3(C)CCC(c4ccc(Cl)cc4)=C(CN4CCN(c5ccc(C(=O)NS(=O)(=O)c6ccc(N[C@H](CCN7CCOCC7)CSc7ccccc7)c(S(=O)(=O)C(F)(F)F)c6)cc5)CC4)C3)CC2)C(C)(C)C)cc1 (stereo partly shown) [PPC8]
much weaker ternary complexes	17022 and 14292	18582 and 21901	16005 and 18766	39343 and 38049	159552 and 171121	340009 and 336400	265891 and 255043	73854 and 131135	17390 and 24043	11384 and 10586	11935 and 10943	12.8	96	also degraded BCL-2	316	79	Cc1ncsc1-c1ccc([C@H](C)NC(=O)[C@@H]2C[C@@H](O)CN2C(=O)[C@@H](NC(=O)CCCCCCCC(=O)N2CCN(CC3(C)CCC(c4ccc(Cl)cc4)=C(CN4CCN(c5ccc(C(=O)NS(=O)(=O)c6ccc(N[C@H](CCN7CCOCC7)CSc7ccccc7)c(S(=O)(=O)C(F)(F)F)c6)cc5)CC4)C3)CC2)C(C)(C)C)cc1 (stereo partly shown) [PPC9]
